Literature values as cited in patent publication US5910307A, “Process of extracting and purifying biologically effective ingredients from combined medicinal plants and their extract composition” (priority 1996, dated 1999).

Legend:
[1] = tested on: biosynthesis of prostacyclin; details: literature
[2] = tested on: chronic rheumatoid arthritis induced by Mycobacterium butyricum; details: literature

Row | SMILES | biosynthesis of prostacyclin generated in the metabolism of arachidonic acid [1] | anti-inflammatory and analgesic effects [2] | effect on chronic rheumatoid arthritis induced by Mycobacterium butyricum [2]
1 | O=C(/C=C/c1ccc(O)c(O)c1)O[C@H](Cc1ccc(O)c(O)c1)C(=O)O [rosmarinic acid] | inhibit | – | –
2 | CC1(C)CC[C@]2(C(=O)O)CC[C@]3(C)C(=CC[C@@H]4[C@@]5(C)CC[C@H](O)C(C)(C)[C@@H]5CC[C@]43C)[C@@H]2C1 [oleanolic acid] | – | remarkable anti-inflammatory and analgesic effects | effective
